Values belong to the molecule of their own block, whether it stands above or below them.
How the values were obtained:
Human primary T cells [1] = assay: T cell activation: secreted IFN-y; assay type: cell-based; conditions: 48 hours, fold over background normalized to Compound 141A; for IFN-y 1 nM: 1 nM compound; for IFN-y 10 nM: 10 nM compound; for IFN-y 100 nM: 100 nM compound
Summary of the method: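 Negatively selected primary human T cells (1×10^5/well, serum-free XVivo-15) on plates coated with 10 μg/mL anti-CD3 were exposed to serial compound dilutions for 48 h at 37 °C. Secreted IFN-γ was measured by cytometric bead array and expressed as fold over anti-CD3/CD28 background, normalized to a reference compound and binned into ranges A–D.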

Human primary T cells [2] = assay: T cell activation: secreted IL-2; assay type: cell-based; conditions: 48 hours, fold over background normalized to Compound 141A; for IL-2 1 nM: 1 nM compound; for IL-2 10 nM: 10 nM compound; for IL-2 100 nM: 100 nM compound
Summary of the method: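 Negatively selected human primary T cells on plate-bound anti-CD3 (OKT3) in serum-free medium, treated 48 h at 37° C. with serial compound dilutions in duplicate. Secreted IL-2 by bead-based cytometric assay, expressed as fold over anti-CD3/CD28 background normalized to a reference compound, then binned into ranges.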

Human primary T cells [3] = assay: T cell activation: CD69 surface expression by flow cytometry; assay type: cell-based; conditions: fold over anti-CD3 stimulated background normalized to Compound 141A; for CD69 1 nM: 1 nM compound; for CD69 10 nM: 10 nM compound; for CD69 100 nM: 100 nM compound
Summary of the method: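 Negatively selected human primary T cells (1×10^5/well, XVivo-15) were captured on plates coated with 10 μg/mL anti-CD3 (OKT3). They were exposed to serially diluted compounds in duplicate for 48 h at 37° C. CD69 was read by flow cytometry as fold over anti-CD3-only background, normalized to Compound 141A and binned into ranges.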

[4] = molecular target: Cbl-b (36-427 aa truncated form, N-terminus Avi-tag) (Homo sapiens (Human), UniProt Q13191); assay: Cbl-b binding: TR-FRET displacement of BODIPY-FL probe
Summary of the method: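 Avi-tagged Cbl-b 36-427 preincubated 1 h at RT with streptavidin-terbium in HEPES pH 7.5/NaCl/Triton/BSA/TCEP buffer, then 1 uM BODIPY-FL inhibitor probe plus compound added for 1 h. Probe displacement read by TR-FRET; IC50 fitted.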

[5] = test system: human peripheral blood pan-T cells; assay: T cell activation by small molecule inhibitors of Cbl-b (biomarker flow cytometry); assay type: cell-based; conditions: 10 μM, 48 hours
Description: Cryopreserved human peripheral blood pan-T cells (StemCell, 70024) were defrosted and resuspended in Immunocult-XF T cell Expansion Medium (StemCell, 10981). Cells were plated at 8×10^5 cells per well in 24 well plates, in presence or absence of pre-coated anti-CD3 (OKT3) antibody (ThermoFisher, 16-0037-85). Pre-coating of plates was done by diluting anti-CD3 antibody to 10 μg/mL in PBS and adding 1 ml to each well. Plates were incubated at 4° C. overnight or at 37° C. for 2 hours and washed once with PBS before use. Dilution of each small molecule cbl-b inhibitor was added. Untreated cell was used as a control. Plates were incubated for 48 hours at 37° C. with 5% CO2. T cells were fixed and permeabilized with Intracellular Fixation & Permeabilization Buffer Set (ThermoFisher, 88-8824), and continuously stained with one of PE-conjugated antibody listed in Table 10. Stained T cells were then analyzed with by flow cytometry (ThermoFisher Attune NxT). The percent of positive cells of each treated group was normalized with untreated cell and sorted into bins as follows: fold over background values from 10 to 14.9: range “A;” values from 5.0 to 9.9: range “B;” values from 2.0 to 4.9: range “C;” and values from 0.1 to 1.9: range “D.” Only for Notch1, geometric mean was used.

[6] = +CD3 (pre-coated anti-CD3 OKT3)

Chain of Cbl-b (36-427 aa truncated form, N-terminus Avi-tag) (Q13191 36-427): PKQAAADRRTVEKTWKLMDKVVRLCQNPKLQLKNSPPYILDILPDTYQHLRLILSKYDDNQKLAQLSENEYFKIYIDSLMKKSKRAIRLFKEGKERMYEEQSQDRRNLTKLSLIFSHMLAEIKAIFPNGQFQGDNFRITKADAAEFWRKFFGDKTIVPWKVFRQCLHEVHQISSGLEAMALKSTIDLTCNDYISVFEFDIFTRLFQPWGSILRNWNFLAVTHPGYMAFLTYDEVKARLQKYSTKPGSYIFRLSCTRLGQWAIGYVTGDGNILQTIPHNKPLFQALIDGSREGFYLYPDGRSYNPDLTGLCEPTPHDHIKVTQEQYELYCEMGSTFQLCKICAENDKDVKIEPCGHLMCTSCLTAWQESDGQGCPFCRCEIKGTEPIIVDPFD

SMILES: C[C@H]1CCCN(Cc2cc3c(c(C(F)(F)F)c2)CN(c2cc(C4(Cc5nncn5C)COC4)cc(NCc4c[nH]nn4)n2)C3=O)C1.O=C(O)C(F)(F)F [Compound 182, (S)-2-(6-(((1H-1,2,3-triazol-4-yl)methyl)amino)-4-(3-((4-methyl-4H-1,2,4-triazol-3-yl)methyl)oxetan-3-yl)pyridin-2-yl)-6-((3-methylpiperidin-1-yl)methyl)-4-(trifluoromethyl)isoindolin-1-one; trifluoroacetic acid]
- IFN-y 1 nM (Human primary T cells [1]): C (values between 0.10 and 0.30: range “C”)
- IFN-y 10 nM (Human primary T cells [1]): C (values between 0.10 and 0.30: range “C”)
- IFN-y 100 nM (Human primary T cells [1]): B (values between 0.31 and 1.00: range “B;”)
- IL-2 1 nM (Human primary T cells [2]): D (values between 0.01 and 0.09: range “D.”)
- IL-2 10 nM (Human primary T cells [2]): D (values between 0.01 and 0.09: range “D.”)
- IL-2 100 nM (Human primary T cells [2]): D (values between 0.01 and 0.09: range “D.”)
- CD69 1 nM (Human primary T cells [3]): C (values between 0.30 and 0.60: range “C”)
- CD69 10 nM (Human primary T cells [3]): C (values between 0.30 and 0.60: range “C”)
- CD69 100 nM (Human primary T cells [3]): C (values between 0.30 and 0.60: range “C”)
- IC50 [4]: 5.01 to 20 nM

SMILES: Cn1cnnc1CC1(c2cc(NCCC#N)nc(N3Cc4c(cc(CN5CCN(c6nccs6)CC5)cc4C(F)(F)F)C3=O)c2)COC1.O=C(O)C(F)(F)F [Compound 186, 3-((4-(3-((4-methyl-4H-1,2,4-triazol-3-yl)methyl)oxetan-3-yl)-6-(1-oxo-6-((4-(thiazol-2-yl)piperazin-1-yl)methyl)-4-(trifluoromethyl)isoindolin-2-yl)pyridin-2-yl)amino)propanenitrile; trifluoroacetic acid]
- IFN-y 1 nM (Human primary T cells [1]): C (values between 0.10 and 0.30: range “C”)
- IFN-y 10 nM (Human primary T cells [1]): C (values between 0.10 and 0.30: range “C”)
- IFN-y 100 nM (Human primary T cells [1]): B (values between 0.31 and 1.00: range “B;”)
- IL-2 1 nM (Human primary T cells [2]): D (values between 0.01 and 0.09: range “D.”)
- IL-2 10 nM (Human primary T cells [2]): D (values between 0.01 and 0.09: range “D.”)
- IL-2 100 nM (Human primary T cells [2]): D (values between 0.01 and 0.09: range “D.”)
- CD69 1 nM (Human primary T cells [3]): C (values between 0.30 and 0.60: range “C”)
- CD69 10 nM (Human primary T cells [3]): C (values between 0.30 and 0.60: range “C”)
- CD69 100 nM (Human primary T cells [3]): C (values between 0.30 and 0.60: range “C”)
- IC50 [4]: 5.01 to 20 nM

SMILES: C[C@H]1CCCN(Cc2cc3c(c(C(F)(F)F)c2)CN(c2cc(C4(Cc5nncn5C)COC4)cc(NC4CC(C#N)C4)n2)C3=O)C1.O=C(O)C(F)(F)F (stereo partly drawn) [Compound 190, (S)-3-((4-(3-((4-methyl-4H-1,2,4-triazol-3-yl)methyl)oxetan-3-yl)-6-(6-((3-methylpiperidin-1-yl)methyl)-1-oxo-4-(trifluoromethyl)isoindolin-2-yl)pyridin-2-yl)amino)cyclobutane-1-carbonitrile; trifluoroacetic acid]
- IFN-y 1 nM (Human primary T cells [1]): C (values between 0.10 and 0.30: range “C”)
- IFN-y 10 nM (Human primary T cells [1]): B (values between 0.31 and 1.00: range “B;”)
- IFN-y 100 nM (Human primary T cells [1]): B (values between 0.31 and 1.00: range “B;”)
- IL-2 1 nM (Human primary T cells [2]): C (values between 0.10 and 0.30: range “C”)
- IL-2 10 nM (Human primary T cells [2]): C (values between 0.10 and 0.30: range “C”)
- IL-2 100 nM (Human primary T cells [2]): C (values between 0.10 and 0.30: range “C”)
- CD69 1 nM (Human primary T cells [3]): C (values between 0.30 and 0.60: range “C”)
- CD69 10 nM (Human primary T cells [3]): C (values between 0.30 and 0.60: range “C”)
- CD69 100 nM (Human primary T cells [3]): B (values between 0.61 and 0.80: range “B;”)
- IC50 [4]: 5.01 to 20 nM

SMILES: CC1CC(c2cc(NCCC#N)nc(N3Cc4c(cc(CN5CCC[C@H](C)C5)cc4C(F)(F)F)C3=O)c2)(c2nncn2C)C1 (stereo partly drawn) [Compound 192, 3-{[6-(6-{[(3S)-3-methylpiperidin-1-yl]methyl}-1-oxo-4-(trifluoromethyl)-3H-isoindol-2-yl)-4-[(1r,3s)-3-methyl-1-(4-methyl-1,2,4-triazol-3-yl)cyclobutyl]pyridin-2-yl]amino}propanenitrile]
- Notch 1, geometric mean normalized with untreated cell (fold over background) [5, 6]: C (values from 2.0 to 4.9: range “C;”)
- pCD3zeta, percent of positive cells normalized with untreated cell (fold over background) [5, 6]: D (values from 0.1 to 1.9: range “D.”)
- pHS1, percent of positive cells normalized with untreated cell (fold over background) [5, 6]: C (values from 2.0 to 4.9: range “C;”)
- pLYN, percent of positive cells normalized with untreated cell (fold over background) [5, 6]: D (values from 0.1 to 1.9: range “D.”)
- pPLCg1, percent of positive cells normalized with untreated cell (fold over background) [5, 6]: C (values from 2.0 to 4.9: range “C;”)
- pPLCg2, percent of positive cells normalized with untreated cell (fold over background) [5, 6]: D (values from 0.1 to 1.9: range “D.”)
- pZAP70, percent of positive cells normalized with untreated cell (fold over background) [5, 6]: C (values from 2.0 to 4.9: range “C;”)
- Notch 1, geometric mean normalized with untreated cell (fold over background) ([5]; −CD3): D (values from 0.1 to 1.9: range “D.”)
- pCD3zeta, percent of positive cells normalized with untreated cell (fold over background) ([5]; −CD3): C (values from 2.0 to 4.9: range “C;”)
- pHS1, percent of positive cells normalized with untreated cell (fold over background) ([5]; −CD3): A (fold over background values from 10 to 14.9: range “A;”)
- pLYN, percent of positive cells normalized with untreated cell (fold over background) ([5]; −CD3): C (values from 2.0 to 4.9: range “C;”)
- pPLCg1, percent of positive cells normalized with untreated cell (fold over background) ([5]; −CD3): B (values from 5.0 to 9.9: range “B;”)
- pPLCg2, percent of positive cells normalized with untreated cell (fold over background) ([5]; −CD3): A (fold over background values from 10 to 14.9: range “A;”)
- pZAP70, percent of positive cells normalized with untreated cell (fold over background) ([5]; −CD3): C (values from 2.0 to 4.9: range “C;”)
- IFN-y 1 nM (Human primary T cells [1]): B (values between 0.31 and 1.00: range “B;”)
- IFN-y 10 nM (Human primary T cells [1]): B (values between 0.31 and 1.00: range “B;”)
- IL-2 1 nM (Human primary T cells [2]): D (values between 0.01 and 0.09: range “D.”)
- IL-2 10 nM (Human primary T cells [2]): B (values between 0.31 and 0.79: range “B”)
- IL-2 100 nM (Human primary T cells [2]): X (fold over background values between 1.41 and 1.8: range “X”)
- CD69 1 nM (Human primary T cells [3]): C (values between 0.30 and 0.60: range “C”)
- CD69 10 nM (Human primary T cells [3]): A (values between 0.81 and 1.10: range “A”)
- CD69 100 nM (Human primary T cells [3]): X (fold over background values between 1.11 and 1.6: range “X”)

SMILES: Cn1cnnc1CC1(c2cccc(NC(=O)c3cc(CN4CC[C@H](OCCCCCCNC(=O)CCN5C(=O)C=CC5=O)C4)cc(C4CC4)n3)c2)COC1 [Compound 200]
- IFN-y 1 nM (Human primary T cells [1]): C (values between 0.10 and 0.30: range “C”)
- IFN-y 10 nM (Human primary T cells [1]): C (values between 0.10 and 0.30: range “C”)
- IFN-y 100 nM (Human primary T cells [1]): C (values between 0.10 and 0.30: range “C”)
- IL-2 1 nM (Human primary T cells [2]): C (values between 0.10 and 0.30: range “C”)
- IL-2 10 nM (Human primary T cells [2]): C (values between 0.10 and 0.30: range “C”)
- IL-2 100 nM (Human primary T cells [2]): C (values between 0.10 and 0.30: range “C”)
- CD69 10 nM (Human primary T cells [3]): C (values between 0.30 and 0.60: range “C”)
- CD69 100 nM (Human primary T cells [3]): C (values between 0.30 and 0.60: range “C”)
- IC50 [4]: 5.01 to 20 nM

- IC50 [4]: 1 to 5 nM
SMILES: C[C@H]1CCCN(Cc2cc3c(c(C(F)(F)F)c2)CN(c2cc(C4(Cc5nncn5C)COC4)cc(OCCOCCOCCOCCNC(=O)CCN4C(=O)C=CC4=O)n2)C3=O)C1 [Compound 201, 3-(2,5-dioxopyrrol-1-yl)-N-{2-[2-(2-{2-[(4-{3-[(4-methyl-1,2,4-triazol-3-yl)methyl]oxetan-3-yl}-6-(6-{[(3S)-3-methylpiperidin-1-yl]methyl}-1-oxo-4-(trifluoromethyl)-3H-isoindol-2-yl)pyridin-2-yl)oxy]ethoxy}ethoxy)ethoxy]ethyl}propanamide]
- IFN-y 1 nM (Human primary T cells [1]): C (values between 0.10 and 0.30: range “C”)
- IFN-y 10 nM (Human primary T cells [1]): C (values between 0.10 and 0.30: range “C”)
- IFN-y 100 nM (Human primary T cells [1]): C (values between 0.10 and 0.30: range “C”)
- IL-2 1 nM (Human primary T cells [2]): C (values between 0.10 and 0.30: range “C”)
- IL-2 10 nM (Human primary T cells [2]): C (values between 0.10 and 0.30: range “C”)
- IL-2 100 nM (Human primary T cells [2]): C (values between 0.10 and 0.30: range “C”)
- CD69 10 nM (Human primary T cells [3]): C (values between 0.30 and 0.60: range “C”)
- CD69 100 nM (Human primary T cells [3]): C (values between 0.30 and 0.60: range “C”)

Source: patent US20250304563A1, “ACTIVATORS OF EFFECTOR T CELLS” (Orum Therapeutics, Inc., priority 2022, published 2025)
